Consider seven compounds from patent publication US11999727B2 (Tango Therapeutics, Inc., priority 2020, dated 2024).

Assay [1] addresses T1, PRMT5 (Homo sapiens, UniProt O14744).
T1 construct: purchased Viva (custom protein)
Put plainly: PRMT5 biochemical IC50 assay with SAM as cofactor. To be noted: PRMT5, SAM as cofactor; read-out: SAM IC50.

The target in assay [2] is T1, PRMT5. In words: PRMT5 biochemical IC50 assay with no cofactor. To be noted: PRMT5, no cofactor. An excerpt: Table 1 indicates IC50 values (μM) against PRMT5 for exemplary compounds in the presence of SAM as cofactor, with no cofactor, and with MTA as cofactor, respectively (columns 4-6). […] Ki values can be calculated from the IC50 values as described in the Examples section. As detailed in the Examples section, for the assay performed in the presence of SAM, IC50=Ki×1.5 (Ki=IC50/1.5).

In assay [3] the target is T1, PRMT5. In words: PRMT5 biochemical IC50 assay with MTA as cofactor. To be noted: PRMT5, MTA as cofactor; read-out: MTA IC50.
Assay [4] relates to HAP1 MTAP-intact cell line. In words: SDMA in-cell western assay, HAP1 MTAP-intact. The class given is cell-based. To be noted: Homo sapiens, HAP1, SDMA in-cell western, HAP1 MTAP-intact; read-out: MTAP HAP1 intact IC50. The method, boiled down: (§1)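 Readout: in-cell western detection of SDMA. Cells: HAP1 expressing endogenous MTAP and an MTAP-null HAP1 counterpart. Output: IC50.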

Assay [5] deals with HAP1 MTAP-deleted cell line. In words: SDMA in-cell western assay, HAP1 MTAP-deleted. The class given is cell-based. As to conditions: for IC50: Homo sapiens, HAP1, SDMA in-cell western, HAP1 MTAP-deleted; for MTAP intact/deleted ratio: SDMA in-cell western. An outline of the steps: as §1
In assay [6] the test system is HAP1 MTAP-deleted cell line. In words: Viability assay, MTAP-deleted cell line. The class given is cell-based. As to conditions: Homo sapiens, read-out: HAP1 MTAP deleted viability. The text has this: Table 1 additionally indicates IC50 values in a viability assay for the MTAP-deleted cell line (column 10), indicating the effect of treatment with compound on cell survival.

The mark [7] stands for this setting: read-out: HAP1 MTAP deleted IC50.
The mark [8] stands for this setting: IC50 ratio HAP1 MTAP-intact / HAP1 MTAP-deleted.
Setting [9] is: HAP1, viability assay, HAP1 MTAP-deleted.
[10] abbreviates: read-out: HAP 1 MTAP deleted IC50.
Where [11] appears, read: HAP1, viability assay, MTAP-deleted cell line.
Setting [12] is: read-out: No Cofactor/ rel IC50.
The mark [13] stands for this setting: HAP1, viability, HAP1 MTAP-deleted cell line.

T1 sequence (O14744 whole entry): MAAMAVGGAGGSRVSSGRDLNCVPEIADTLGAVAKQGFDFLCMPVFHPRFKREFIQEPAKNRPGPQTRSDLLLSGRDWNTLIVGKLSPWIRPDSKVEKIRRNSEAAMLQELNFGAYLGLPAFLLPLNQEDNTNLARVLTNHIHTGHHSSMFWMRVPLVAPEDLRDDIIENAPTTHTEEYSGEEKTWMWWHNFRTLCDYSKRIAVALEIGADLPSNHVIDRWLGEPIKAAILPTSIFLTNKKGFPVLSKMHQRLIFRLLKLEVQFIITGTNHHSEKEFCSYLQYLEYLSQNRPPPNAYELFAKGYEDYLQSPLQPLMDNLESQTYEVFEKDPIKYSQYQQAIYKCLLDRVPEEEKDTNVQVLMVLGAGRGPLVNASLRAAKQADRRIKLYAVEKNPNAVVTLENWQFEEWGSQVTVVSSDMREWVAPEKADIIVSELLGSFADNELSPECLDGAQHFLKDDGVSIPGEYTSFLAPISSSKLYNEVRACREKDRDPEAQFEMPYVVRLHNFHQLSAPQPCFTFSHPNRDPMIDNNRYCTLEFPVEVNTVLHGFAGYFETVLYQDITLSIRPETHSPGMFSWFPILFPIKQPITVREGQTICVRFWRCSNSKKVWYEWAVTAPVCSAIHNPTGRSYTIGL
T1 sequence (Q9BQA1 whole entry partner): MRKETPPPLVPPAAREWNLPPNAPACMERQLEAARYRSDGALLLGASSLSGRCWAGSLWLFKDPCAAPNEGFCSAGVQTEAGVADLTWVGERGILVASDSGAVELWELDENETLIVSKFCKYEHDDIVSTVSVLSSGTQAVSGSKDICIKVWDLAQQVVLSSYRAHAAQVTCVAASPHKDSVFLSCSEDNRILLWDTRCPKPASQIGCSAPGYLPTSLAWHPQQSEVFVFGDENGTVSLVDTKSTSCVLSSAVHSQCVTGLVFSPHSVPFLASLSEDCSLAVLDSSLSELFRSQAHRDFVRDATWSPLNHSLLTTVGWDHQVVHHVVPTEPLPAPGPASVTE

On to `CC(=O)Nc1ccc([C@H]2CC[C@H](C)CN2C(=O)C(=O)Nc2cnc(N)c(C)c2)s1` (single isomer, unassigned) [Compound 717], for which the IC50 on PRMT5 [1] is more than 500 nM; at PRMT5 [2] (read-out: No Cofactor/rel IC50), more than 500 nM; on PRMT5 [3] it was more than 500 nM; in assay [4], more than 1000 nM; in assay [5] (setting [7]) it was more than 1000 nM; in assay [6] (setting [9]), more than 10000 nM. The MTAP intact/deleted ratio result in assay [5] (setting [8]) is listed as “C (an IC50 ratio of less than 3 fold)”.
In the case of `CCc1cc(NC(=O)C(=O)N2C[C@H](C)C(F)(F)C[C@H]2c2ccc(C)nc2)cnc1N` (single isomer, unassigned) [Compound 935], the IC50 at PRMT5 [1] was more than 500 nM; on PRMT5 [2] (read-out: No Cofactor/rel IC50) it was more than 500 nM; on PRMT5 [3] it was more than 500 nM; in assay [4] it was more than 1000 nM; in assay [5] (setting [10]), more than 1000 nM; in assay [6] (setting [11]) it was more than 10000 nM. In addition, in assay [5] (setting [8]), the MTAP intact/deleted ratio result is listed as “C (an IC50 ratio of less than 3 fold)”.
In the case of `Cc1cc(NC(=O)C(=O)N2CCCCC2c2cccc3c2CC(=O)N3)cnc1N` (stereo not drawn) [Compound 116, N-(6-Amino-5-methyl-3-pyridyl)-2-oxo-2-[2-(2-oxoindolin-4-yl)-1-piperidyl]acetamide], the IC50 was 50 to 500 nM on PRMT5 [1]; more than 500 nM on PRMT5 [2] (setting [12]); 50 to 500 nM at PRMT5 [3]; more than 1000 nM in assay [4]; 100 to 1000 nM in assay [5] (setting [10]); more than 10000 nM in assay [6] (setting [11]). Moreover, the “MTAP intact/deleted ratio” value in assay [5] (setting [8]) is given as “A (an IC50 ratio greater than or equal to 10 fold)”.
On to `COc1ncc(NC(=O)C(=O)N2C[C@@H](C)CC[C@@H]2c2cccc(OCCN(C)C)c2)cc1C(N)=O` [Compound 1352, 5-(2-((2R,5S)-2-(3-(2-(dimethylamino)ethoxy)phenyl)-5-methylpiperidin-1-yl)-2-oxoacetamido)-2-methoxynicotinamide], for which the IC50 on PRMT5 [1] was less than 50 nM; on PRMT5 [2] (setting [12]), less than 50 nM; at PRMT5 [3], less than 50 nM; in assay [4] it was more than 1000 nM; in assay [5] (setting [10]), less than 100 nM; in assay [6] (setting [13]), less than 1000 nM.
On to `Cc1cc(NC(=O)C(=O)N2C[C@@H](C)CC[C@@H]2c2ccc3sc(C4CCN(C)CC4)nc3c2)cnc1C` [Compound 1137, N-(5,6-dimethylpyridin-3-yl)-2-((2R,5S)-5-methyl-2-(2-(1-methylpiperidin-4-yl)benzo[d]thiazol-5-yl)piperidin-1-yl)-2-oxoacetamide], for which the IC50 on PRMT5 [1] was less than 50 nM; at PRMT5 [2] (read-out: No Cofactor/rel IC50), less than 50 nM; at PRMT5 [3] it was less than 50 nM; in assay [4] it was less than 100 nM; in assay [5] (setting [7]), less than 100 nM; in assay [6] (setting [11]), less than 1000 nM. For the same compound, in assay [5] (IC50 ratio HAP1 MTAP-intact vs HAP1 MTAP-deleted), the MTAP intact/deleted ratio entry is listed as “A (an IC50 ratio greater than or equal to 10 fold)”.
Turning to `CCc1cc(NC(=O)C(=O)N2C[C@@H](C)CC[C@@H]2c2ccc3sc(CN(C)C(C)C)nc3c2)cnc1N` [Compound 1303, N-(6-amino-5-ethylpyridin-3-yl)-2-((2R,5S)-2-(2-((isopropyl(methyl)amino)methyl)benzo[d]thiazol-5-yl)-5-methylpiperidin-1-yl)-2-oxoacetamide], the IC50 on PRMT5 [1] was 50 to 500 nM; on PRMT5 [2] (setting [12]), less than 50 nM; at PRMT5 [3], less than 50 nM; in assay [4], 100 to 1000 nM; in assay [5] (setting [10]), less than 100 nM; in assay [6] (setting [13]) it was less than 1000 nM. Also, in assay [5] (setting [8]), the “MTAP intact/deleted ratio” value was “A (an IC50 ratio greater than or equal to 10 fold)”.
As to `CNc1nc2cc([C@H]3CC[C@H](C)CN3C(=O)C(=O)Nc3cnc(OC)c(C(N)=O)c3)ccc2s1` (single isomer, unassigned) [Compound 863], the IC50 was 50 to 500 nM on PRMT5 [1]; less than 50 nM on PRMT5 [2] (read-out: No Cofactor/rel IC50); less than 50 nM at PRMT5 [3]; more than 1000 nM in assay [4]; less than 100 nM in assay [5] (setting [7]); less than 1000 nM in assay [6] (setting [9]). Further, in assay [5] (setting [8]), the MTAP intact/deleted ratio result is on record as “A (an IC50 ratio greater than or equal to 10 fold)”.
